“And” between values parts separate entries of the source, which are not always exact repeats. Identical values can stand only once.
Key:
Fluc [1] = molecular target: T1, Fluc (Photinus pyralis, UniProt P08659); assay: BL emission spectra of luciferase-luciferin reactions; assay type: biochemical; conditions: 100 mM HEPES pH 8.0, 25 °C
Method: (§1) 1.5 Bioluminescence characterizations
(§2) Reactions of luciferases, including Photinus pyralis luciferase (Fluc), Phrixothrix hirtus luciferase (SLR), Pyrearinus termitilluminans […]
(§3) mM D-LH 2 analogues, 3 mM ATP, 6 mM MgCl2, and 10 µM luciferase in 0.2 ml of 100 mM HEPES-NaOH pH 8.0. The bioluminescence (BL) emission characteristics were recorded using a microplate reader in a BL mode (Thermo Scientific, Varioskan, LUX multimode). […]
(§4) sphere-based multichannel spectrometer with a charge-coupled device (CCD) detector. […]

SLR [2] = assay: as above; assay type: biochemical, Phrixothrix hirtus; conditions: 100 mM HEPES pH 8.0, 25 °C
Method: as §1, §2, §3, §4

Eluc = assay: as above; assay type: biochemical, Pyrearinus termitilluminans; conditions: 100 mM HEPES pH 8.0, 25 °C
Method: as §1, §2, §3, §4

Pmluc-WT [3] = assay: as above; assay type: biochemical, Pyrocoelia miyako; conditions: 100 mM HEPES pH 8.0, 25 °C
Method: as §1, §2, §3, §4

SLR [4] = assay: Steady-state kinetics of luciferase reactions (luminometer); assay type: biochemical, Phrixothrix hirtus
Method: as §1, §2, §3
BL of the
(§5) The reactions were initiated by mixing 25 µl of premixed solution of luciferases/D-LH 2 analogues with 125 µl of 3 mM ATP and 6 mM MgCl2 in 100 mM HEPES-NaOH (pH 8.0). The light intensity (relative light unit, RLU) during 0-300 sec was then collected to represent the overall luciferase activity which was further used for calculating kinetic parameters from the Michaelis-Menten equation. […]

Pmluc-WT [5] = assay: as above; assay type: biochemical, Pyrocoelia miyako
Method: as §1, §2, §3
BL of the
as §5

Fluc [6] = molecular target: T1, Fluc; assay: Stability of BL signals (half-time of light emission); assay type: biochemical; conditions: compared to 2a
Method: as §1, §2
(§6) mM D-LH 2 analogues, 3 mM ATP, 6 mM MgCl2, and 10 µM luciferase in 0.2 ml of 100 mM HEPES-NaOH pH 8.0. The bioluminescence (BL) emission characteristics were recorded using a microplate reader in a BL mode (Thermo Scientific, Varioskan, LUX multimode). A digital single-lens reflex (DSLR) camera (Nikon D80, CCD sensor) with a 30-second exposure period was used to capture the BL images. […]

Pmluc-N230S [7] = assay: as above; assay type: biochemical, Pyrocoelia miyako; conditions: compared to 2a
Method: as §1, §2, §6

Fluc [8] = molecular target: T1, Fluc; assay: Bioluminescence quantum yield measurement; assay type: biochemical
Method: as §1, §2
(§7) mM D-LH 2 analogues, 3 mM ATP, 6 mM MgCl2, and 10 µM luciferase in 0.2 ml of 100 mM HEPES-NaOH pH 8.0. […]
(§8) A reference light source was used for calibrating a sphere spectrometer equipped with a cooled CCD detector.
(§9) The absolute responsivity of each luciferase-luciferin reaction was calculated based on a linear standardization between total photon flux measured using the sphere spectrometer equipped with a cooled CCD detector and relative count values measured by a luminometer. Total photons emitted from the bioluminescence reaction of each luciferase-luciferin pair were measured using a calibrated luminometer. A reaction containing 0.5-5 nM of each luciferin, 3 mM ATP, 3 mM MgCl2 in 100 mM Tris-HCl (total volume of 200 µl) was placed into the luminometer and background signals were recorded. The reaction was then initiated by adding 20 µl of 0.5 […]
(§10) mM purified luciferases into the reaction tube and the bioluminescence signals were monitored until it decayed to the background level.

SLR [9] = assay: Bioluminescence quantum yield measurement; assay type: biochemical, Phrixothrix hirtus
Method: as §1, §2, §7, §8, §9, §10

Pmluc-N230S [10] = assay: Bioluminescence quantum yield measurement; assay type: biochemical, Pyrocoelia miyako
Method: as §1, §2, §7, §8, §9, §10

Fluc [11] = molecular target: T1, Fluc; assay: Stopped-flow luminometry, single turnover light formation and decay; assay type: biochemical
Method: 1.5 Bioluminescence characterizations […]
One syringe was filled with a solution of 50 µM Fluc, 3 mM ATP, and 6 mM
in both syringes were mixed by a stopped-flow device and measured the light emission at 25 °C in triplicate. […]
2.8 Investigation of bioluminescence kinetics using stopped-flow luminometry
reactions were investigated using a stopped-flow spectrophotometer (employing a light-off mode for detecting the luminescence). One

SLR (HepG2) = assay: Sensitivity of live reporter cell detection (LOD of cell number); assay type: cell-based, human
Fluc (HeLa) = assay: as above; assay type: cell-based, human
[12] = Absorption and fluorescence spectra of luciferins; assay type: physicochemical; conditions: 100 mM HEPES pH 8.0, 25 °C
Method: 2.6 Spectra of firefly luciferins
spectrophotometer (Agilent technologies, Cary 100 UV Vis, Cary Series UV-Vis Spectrophotometer).
were recorded by a microplate reader (Thermo Scientific, Varioskan, LUX multimode) in fluorescence mode. The reactions of D-LH 2 […]
Supplementary Table S5. […]
[e] ND denotes “not detectable”. […]

[13] = tested on: Fluc-expressing HeLa cells; assay: Real-time BL monitoring of live cells; conditions: 100 µM
Method: plasmids and Lipofectamine 3000 were then combined and incubated for 30 minutes to allow formation of DNA and lipid complexes.
The DNA-lipid complexes were added directly to each well of the empty plate. 1.5 × 10⁵ cells (HepG2 and HeLa cells) were then suspended
in 150 µL of DMEM supplemented with 10% FBS were added directly into the transfection mixture in each well. The plate was gently
agitated to ensure even distribution and incubated at 37°C in a humidified 5% CO₂ incubator. The reporter cells obtained at this stage
were ready for further investigation of their bioluminescence with D-LH2 analogues.
2c), 10% FBS and 25 mM HEPES-NaOH (pH 7.0) was added and the BL signals were monitored with F0 (no filter) and F2 (red filter, >620
nm long-pass filter) by a luminometer (ATTO, Kronos HT, WSL-1563) and while maintaining the cells with 5% CO2 at 37 °C.

[14] = concentration range tested 0-300
[15] = Fluc-expressing HeLa, F0 filter

T1 sequence (P08659 whole entry): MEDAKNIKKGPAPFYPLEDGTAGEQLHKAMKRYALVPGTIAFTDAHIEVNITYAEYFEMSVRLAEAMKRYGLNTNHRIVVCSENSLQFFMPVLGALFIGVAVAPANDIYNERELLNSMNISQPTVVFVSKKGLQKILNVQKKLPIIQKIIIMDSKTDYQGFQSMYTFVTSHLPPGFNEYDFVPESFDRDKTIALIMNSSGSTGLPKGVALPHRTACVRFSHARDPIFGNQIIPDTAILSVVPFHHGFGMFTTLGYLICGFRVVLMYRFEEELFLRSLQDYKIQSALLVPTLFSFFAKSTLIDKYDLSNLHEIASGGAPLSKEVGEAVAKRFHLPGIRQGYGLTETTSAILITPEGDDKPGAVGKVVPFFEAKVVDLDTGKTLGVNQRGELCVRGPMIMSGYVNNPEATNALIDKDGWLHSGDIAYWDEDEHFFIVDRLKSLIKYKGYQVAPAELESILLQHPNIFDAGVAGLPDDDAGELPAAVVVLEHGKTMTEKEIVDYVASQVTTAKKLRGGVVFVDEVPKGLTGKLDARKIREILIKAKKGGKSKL

Compound: Cc1cc2nc(C3=N[C@@H](C(=O)O)CS3)sc2c(C)c1O [Compound 2c, 5’,7’-di-methyl-D-luciferin]
- Bioluminescence wavelength (BLλ) (Fluc [1]): 628 nm
- Bioluminescence wavelength (BLλ) (SLR [2]): 634 nm
- Bioluminescence wavelength (BLλ) (Eluc): 573 nm
- Bioluminescence wavelength (BLλ) (Pmluc-WT [3]): 631 nm
- Substrate inhibition (SLR [4]; [14]): > 2.1 µM
- appKm (SLR [4]; pH 8.0, 25 °C): 0.5 µM
- Relative kcat (SLR [4]; relative to 2a compound): 134.8
- Substrate inhibition (Pmluc-WT [5]; [14]): > 8.3 µM
- appKm (Pmluc-WT [5]; pH 8.0, 25 °C): 1.8 µM
- Relative kcat (Pmluc-WT [5]; relative to 2a compound): 7.7
- BL half-life (t1/2) longer than that of 2a (Fluc [6]): about 1.7 fold
- BL half-life (t1/2) longer than that of 2a (Pmluc-N230S [7]): ~5.6 fold
- Quantum yield (Fluc [8]): 0.20 and 0.200 ± 0.007
- Quantum yield (SLR [9]): 0.16 and 0.160 ± 0.003
- Quantum yield (Pmluc-N230S [10]): 0.15 and 0.150 ± 0.014
- kobs of light decay (faster and slower phases) slower than those of 2a and 2b (Fluc [11]; Fluc): 5–6 fold
- Observed rate constant (kobs) Light decay Faster phase (Fluc [11]; Fluc single turnover, 25 °C): 0.27 s⁻¹ and 0.27 ± 0.00 s⁻¹
- Observed rate constant (kobs) Light decay Slower phase (Fluc [11]; Fluc single turnover, 25 °C): 0.05 s⁻¹ and 0.05 ± 0.00 s⁻¹
- Observed rate constant (kobs) Light formation (Fluc [11]; Fluc single turnover, 25 °C): 7.28 s⁻¹ and 7.28 ± 0.02 s⁻¹
- Limit of detection (LOD), cells (SLR (HepG2); F0 (no filter)): 500 cells
- Limit of detection (LOD), cells (SLR (HepG2); F2 (red filter)): 613 cells
- Limit of detection (LOD), cells (Fluc (HeLa); Fluc (HeLa), F2 (red filter)): 350 cells
- Sensitivity higher than that of 2a (Fluc (HeLa); [15]): ~13.0 fold
- Sensitivity higher than that of 2b (Fluc (HeLa); [15]): about 4.1 fold
- Sensitivity higher than that of 2a (Fluc (HeLa); Fluc-expressing HeLa, F2 filter): about 2.8 fold
- Absorption (λmax) [12]: 334 nm
- Fluorescence (λem) [12]: 560 nm and 523–560 nm
- Time BL signals increase or are prolonged before decreasing [13]: up to 13 h

Reference: publication PMC12668289 (RSC Chemical Biology, 2025)
